#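 Protocol summary: plate cells (96-well), add compound at 5 concentrations, incubate 48 h, interpolate endpoints linearly. GI50 = concentration required for 50% inhibition of growth. The concentration for full growth arrest is given as TGI.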
# Experiments:
# Test in all cases: NCI anticancer screen, dose series, 48 h
# 786-0 renal = tested on: 786-0 renal
# A498 renal = tested on: A498 renal
# A549 NSCLC = tested on: A549 NSCLC
# ACHN renal = tested on: ACHN renal
# BT-549 breast = tested on: BT-549 breast
# CAKI-1 renal = tested on: CAKI-1 renal
# CCRF-CEM leukemia = tested on: CCRF-CEM leukemia
# COLO 205 colon = tested on: COLO 205 colon
# DU-145 prostate = tested on: DU-145 prostate
# EKVX NSCLC = tested on: EKVX NSCLC
# HCC-2998 colon = tested on: HCC-2998 colon
# HCT-116 colon = tested on: HCT-116 colon
# HCT-15 colon = tested on: HCT-15 colon
# HL-60(TB) leukemia = tested on: HL-60(TB) leukemia
# HOP-62 NSCLC = tested on: HOP-62 NSCLC
# HOP-92 NSCLC = tested on: HOP-92 NSCLC
# HS 578T breast = tested on: HS 578T breast
# HT29 colon = tested on: HT29 colon
# IGROV1 ovarian = tested on: IGROV1 ovarian
# K-562 leukemia = tested on: K-562 leukemia
# KM12 colon = tested on: KM12 colon
# LOX IMVI melanoma = tested on: LOX IMVI melanoma
# M14 melanoma = tested on: M14 melanoma
# MALME-3M melanoma = tested on: MALME-3M melanoma
# MCF7 breast = tested on: MCF7 breast
# MDA-MB-231 breast = tested on: MDA-MB-231 breast
# MDA-MB-435 = tested on: MDA-MB-435
# MOLT-4 leukemia = tested on: MOLT-4 leukemia
# NCI-H226 lung = tested on: NCI-H226 lung
# NCI-H23 lung = tested on: NCI-H23 lung
# NCI-H460 lung = tested on: NCI-H460 lung
# NCI-H522 lung = tested on: NCI-H522 lung
# NCI/ADR-RES ovarian = tested on: NCI/ADR-RES ovarian
# OVCAR-3 ovarian = tested on: OVCAR-3 ovarian
# OVCAR-4 ovarian = tested on: OVCAR-4 ovarian
# OVCAR-5 ovarian = tested on: OVCAR-5 ovarian
# OVCAR-8 ovarian = tested on: OVCAR-8 ovarian
# PC-3 prostate = tested on: PC-3 prostate
# RXF 393 renal = tested on: RXF 393 renal
# SF-268 CNS = tested on: SF-268 CNS
# SF-295 CNS = tested on: SF-295 CNS
# SF-539 CNS = tested on: SF-539 CNS
# SK-MEL-28 melanoma = tested on: SK-MEL-28 melanoma
# SK-MEL-5 melanoma = tested on: SK-MEL-5 melanoma
# SK-OV-3 ovarian = tested on: SK-OV-3 ovarian
# SN12C renal = tested on: SN12C renal
# SNB-19 CNS = tested on: SNB-19 CNS
# SR leukemia = tested on: SR leukemia
# SW-620 colon = tested on: SW-620 colon
# T-47D breast = tested on: T-47D breast
# TK-10 renal = tested on: TK-10 renal
# U251 CNS = tested on: U251 CNS
# UACC-257 melanoma = tested on: UACC-257 melanoma
# UACC-62 melanoma = tested on: UACC-62 melanoma
# UO-31 renal = tested on: UO-31 renal
compound,measurement,setting,value
COc1cc(/C=C2\CC3C4CC=C5C[C@@H](O)CC[C@]5(C)C4CC[C@]3(C)C2=O)ccc1OCCCn1ccnc1 (stereo not given in full),GI50,786-0 renal,17.3 µM
same,TGI,786-0 renal,31.3 µM
same,GI50,A498 renal,25.5 µM
same,TGI,A498 renal,44.2 µM
same,GI50,A549 NSCLC,17.1 µM
same,TGI,A549 NSCLC,56.4 µM
same,GI50,ACHN renal,11.2 µM
same,TGI,ACHN renal,24.7 µM
same,GI50,BT-549 breast,16.5 µM
same,TGI,BT-549 breast,44.3 µM
same,GI50,CAKI-1 renal,19.1 µM
same,TGI,CAKI-1 renal,39.8 µM
same,GI50,CCRF-CEM leukemia,18 µM
same,TGI,CCRF-CEM leukemia,34.8 µM
same,GI50,COLO 205 colon,26.4 µM
same,TGI,COLO 205 colon,> 100 µM
same,GI50,DU-145 prostate,15.4 µM
same,TGI,DU-145 prostate,29.6 µM
same,GI50,EKVX NSCLC,17 µM
same,TGI,EKVX NSCLC,47.4 µM
same,GI50,HCC-2998 colon,14.8 µM
same,TGI,HCC-2998 colon,28.3 µM
same,GI50,HCT-116 colon,16.1 µM
same,TGI,HCT-116 colon,33.4 µM
same,GI50,HCT-15 colon,10.2 µM
same,TGI,HCT-15 colon,31.3 µM
same,GI50,HL-60(TB) leukemia,19.4 µM
same,TGI,HL-60(TB) leukemia,37.3 µM
same,GI50,HOP-62 NSCLC,19.4 µM
same,TGI,HOP-62 NSCLC,34.1 µM
same,GI50,HOP-92 NSCLC,14.2 µM
same,TGI,HOP-92 NSCLC,32.6 µM
same,GI50,HS 578T breast,26.9 µM
same,TGI,HS 578T breast,53.7 µM
same,GI50,HT29 colon,13.7 µM
same,TGI,HT29 colon,> 100 µM
same,GI50,IGROV1 ovarian,23.7 µM
same,TGI,IGROV1 ovarian,52.8 µM
same,GI50,K-562 leukemia,17.6 µM
same,TGI,K-562 leukemia,39.2 µM
same,GI50,KM12 colon,25.2 µM
same,TGI,KM12 colon,54.8 µM
same,GI50,LOX IMVI melanoma,0.509 µM
same,TGI,LOX IMVI melanoma,16.4 µM
same,GI50,M14 melanoma,15.2 µM
same,TGI,M14 melanoma,33.3 µM
same,GI50,MALME-3M melanoma,17.3 µM
same,TGI,MALME-3M melanoma,36.9 µM
same,GI50,MCF7 breast,18.8 µM
same,TGI,MCF7 breast,37.7 µM
same,GI50,MDA-MB-231 breast,27.1 µM
same,TGI,MDA-MB-231 breast,65.6 µM
same,GI50,MDA-MB-435,16.8 µM
same,TGI,MDA-MB-435,34 µM
same,GI50,MOLT-4 leukemia,20.8 µM
same,TGI,MOLT-4 leukemia,41.8 µM
same,GI50,NCI-H226 lung,19.6 µM
same,TGI,NCI-H226 lung,39.2 µM
same,GI50,NCI-H23 lung,18.1 µM
same,TGI,NCI-H23 lung,32.9 µM
same,GI50,NCI-H460 lung,18.6 µM
same,TGI,NCI-H460 lung,44 µM
same,GI50,NCI-H522 lung,17.1 µM
same,TGI,NCI-H522 lung,37.3 µM
same,GI50,NCI/ADR-RES ovarian,15.4 µM
same,TGI,NCI/ADR-RES ovarian,31.7 µM
same,GI50,OVCAR-3 ovarian,19.1 µM
same,TGI,OVCAR-3 ovarian,39.4 µM
same,GI50,OVCAR-4 ovarian,41.5 µM
same,TGI,OVCAR-4 ovarian,> 100 µM
same,GI50,OVCAR-5 ovarian,20.2 µM
same,TGI,OVCAR-5 ovarian,41.9 µM
same,GI50,OVCAR-8 ovarian,17.1 µM
same,TGI,OVCAR-8 ovarian,47.5 µM
same,GI50,PC-3 prostate,> 100 µM
same,TGI,PC-3 prostate,> 100 µM
same,GI50,RXF 393 renal,12.6 µM
same,TGI,RXF 393 renal,34.8 µM
same,GI50,SF-268 CNS,18.2 µM
same,TGI,SF-268 CNS,40.2 µM
same,GI50,SF-295 CNS,13.4 µM
same,TGI,SF-295 CNS,27.5 µM
same,GI50,SF-539 CNS,15.7 µM
same,TGI,SF-539 CNS,31.1 µM
same,GI50,SK-MEL-28 melanoma,28.9 µM
same,TGI,SK-MEL-28 melanoma,> 100 µM
same,GI50,SK-MEL-5 melanoma,14.1 µM
same,TGI,SK-MEL-5 melanoma,27 µM
same,GI50,SK-OV-3 ovarian,29.1 µM
same,TGI,SK-OV-3 ovarian,> 100 µM
same,GI50,SN12C renal,17 µM
same,TGI,SN12C renal,33.7 µM
same,GI50,SNB-19 CNS,38.8 µM
same,TGI,SNB-19 CNS,> 100 µM
same,GI50,SR leukemia,24.1 µM
same,TGI,SR leukemia,41.9 µM
same,GI50,SW-620 colon,24.4 µM
same,TGI,SW-620 colon,52.9 µM
same,GI50,T-47D breast,29.3 µM
same,TGI,T-47D breast,> 100 µM
same,GI50,TK-10 renal,20.4 µM
same,TGI,TK-10 renal,35.9 µM
same,GI50,U251 CNS,15 µM
same,TGI,U251 CNS,32.8 µM
same,GI50,UACC-257 melanoma,15.8 µM
same,TGI,UACC-257 melanoma,35.3 µM
same,GI50,UACC-62 melanoma,17.3 µM
same,TGI,UACC-62 melanoma,35.3 µM
same,GI50,UO-31 renal,19.6 µM
same,TGI,UO-31 renal,55.2 µM
